In paper PMC8725537, “Assessment of NSAIDs as potential inhibitors of the fatty acid amide hydrolase I (FAAH-1) using three different primary fatty acid amide substrates in vitro” (BMC Pharmacology & Toxicology, 2022):
Like-named read-outs stand apart in the source and are kept apart here. One block for each molecule: values may come before it.

Columns and labels:
[1] = molecular target: T1, FAAH-1 (Rattus norvegicus, UniProt P97612); assay: Inhibition of rat liver FAAH-1 oleamide hydrolase activity by NSAIDs (500 μM screen and concentration-inhibition curves); type: biochemical; conditions: for FAAH-1 oleamide hydrolase activity, % of control: 500 μM NSAID, oleamide substrate, rat liver
T1 construct: Liver obtained from male Wister rats; from tissue; host or cells: rat liver homogenate, 20,000 g membrane pellet (male Wistar rats, Charles River Laboratories)
T1 sequence (P97612 1-579): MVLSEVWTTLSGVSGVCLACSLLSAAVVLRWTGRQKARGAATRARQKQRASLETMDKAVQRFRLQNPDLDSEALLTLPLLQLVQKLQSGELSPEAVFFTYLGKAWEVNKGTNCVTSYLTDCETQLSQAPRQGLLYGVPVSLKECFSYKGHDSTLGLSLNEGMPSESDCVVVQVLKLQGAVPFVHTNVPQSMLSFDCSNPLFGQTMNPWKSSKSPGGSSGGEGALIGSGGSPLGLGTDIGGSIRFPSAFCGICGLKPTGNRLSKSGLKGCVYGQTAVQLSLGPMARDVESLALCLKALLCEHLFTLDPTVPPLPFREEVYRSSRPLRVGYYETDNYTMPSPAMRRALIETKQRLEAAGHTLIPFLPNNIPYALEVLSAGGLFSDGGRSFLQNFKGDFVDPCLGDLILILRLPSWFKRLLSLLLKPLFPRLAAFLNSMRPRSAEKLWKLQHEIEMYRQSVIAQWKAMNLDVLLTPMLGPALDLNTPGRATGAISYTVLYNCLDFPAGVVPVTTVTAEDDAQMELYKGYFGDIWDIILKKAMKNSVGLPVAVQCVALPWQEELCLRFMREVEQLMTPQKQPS
Experimental: (§1) FAAH-1 activity was studied in rat liver homogenate.
(§2) Liver obtained from male Wister rats (150–250 g, Charles River Laboratories, Wilmington, USA) which had been stored at − 40 °C was thawed. A volume of 6 ml/g wet weight of rat liver was homogenized in 0.2 M potassium phosphate buffer, pH 7.4 using a hand held homogenizer (Ultra-turrax) (Merck KGaA, Darmstadt, Germany). The resulting mixture was centrifuged at 250 g for 10 min after which the pellet obtained was re-homogenised and centrifuged as aforementioned. The supernatants were combined and centrifuged at 20,000 g for 30 min, after which the membrane containing pellet was re-suspended in 1:1^w/v 0.2 M potassium phosphate buffer, pH 7.4, and stored in 1 ml aliquots at − 40 °C.
FAAH-1 activity was assayed essentially as described previously. Briefly, rat liver homogenate was pre-incubated at 37 °C with shaking (50 × 10 rpm) for 10 min in 0.2 M phosphate buffer, pH 7.4 in 96-well microtitre plates (Thermo Scientific Inc., Waltham, USA) prior to substrate addition and incubation at 37 °C for 30 min. […] Substrate blank and a control containing 0.2 M phosphate buffer, pH 7.4, were incorporated into the experiments.
(§3) Effect of 500 μM concentration of NSAIDs (SIGMA-ALDRICH, Poole, UK) on each enzyme activity was analysed by removing the baseline line. Each specific activity was then plotted as percentage of control. Specific activity obtained at each inhibitor concentration for the concentration-inhibition curves were normalized and analysed using the inbuilt log (inhibitor) versus response variable slope (robust fit) and were constrained at the bottom (= 0.0%). Each specific activity was then plotted as percentage of the control. To determine the mode of inhibition, Vmax values were initially extrapolated from the (NH4)2SO4 standard curve plotted using the inbuilt second order polynomial (quadratic) Michaelis-Menten enzyme kinetics. These values were then adjusted using the protein concentrations of the preparations obtained from the Lowry protocol (Fig. SS1 and SS2).

[2] = molecular target: T1, FAAH-1; assay: Mode of inhibition of rat liver FAAH-1 hydrolysis of oleamide and arachidonamide (Michaelis-Menten with inhibitor); type: biochemical; conditions: for Vmax (nmol/min/mg protein): Control (no inhibitor), compound as substrate; for Mode of inhibition of FAAH activity: Michaelis-Menten analysis, oleamide and arachidonamide substrates
Experimental: (§4) FAAH-1 activity was assayed essentially as described previously. Briefly, rat liver homogenate was pre-incubated at 37 °C with shaking (50 × 10 rpm) for 10 min in 0.2 M phosphate buffer, pH 7.4 in 96-well microtitre plates (Thermo Scientific Inc., Waltham, USA) prior to substrate addition and incubation at 37 °C for 30 min. The 100 μl total assay reaction mixtures were halted with an equivalent volume of o-phthaldehyde (OPA) developing solution (0.4 M potassium phosphate buffer, pH 11.5) and incubated further at 37 °C for 15 min before assessing fluorescence using a FLUOstar Galaxy (Excitation 390 nm, Emission 450–10 nm) (BMG LABTECH GmbH, Ortenberg, Germany). Substrate blank and a control containing 0.2 M phosphate buffer, pH 7.4, were incorporated into the experiments.
as §3, with “Data obtained were entered into a Microsoft Excel 2010 spread sheet and analysed with GraphPad Prism computer software programme (GraphPad Software Inc., San Diego, CA USA). Effect” for “Effect”
Unlike aspirin which is an irreversible inhibitor of COX enzymes, most other NSAIDs are reversible competitive inhibitors of the COX enzymes.
Data are mean ± SEM (Standard Error of the Mean) of four separate preparations (n = 4) conducted in triplicate

[3] = molecular target: T1, FAAH-1; assay: Rat liver FAAH-1 hydrolysis of primary fatty acid amide substrates (Michaelis-Menten, OPA fluorescence ammonia assay); type: biochemical; conditions: for Km / Vmax: rat liver FAAH-1, compound as substrate, pH 7.4, mean ± SEM n = 4
Experimental: as §1, §2, §4
as §3, with “Data obtained were entered into a Microsoft Excel 2010 spread sheet and analysed with GraphPad Prism computer software programme (GraphPad Software Inc., San Diego, CA USA). Effect” for “Effect”
Fig. 1 Hydrolysis of oleamide (a), arachidonamide (b) and stearoylamide (c) by rat liver FAAH-1 activity. Rat liver FAAH-hydrolytic activity of each primary amide substrate in vitro, was assayed by quantification of ammonia released after hydrolysis. Ammonia generated in the presence of sulphite ions is reacted with alkaline o-phthaldehyde (OPA) to generate the stable fluorescent isoindole derivative (1-sulphonatoisoindole) which is quantified by fluorescent spectroscopy. Four separate experiments with three replicates on the same microtiter plate were conducted for each substrate using different rat liver preparations. Data are mean ± SEM (Standard Error of the Mean) of four separate preparations (n = 4) conducted in triplicate

[4] = system: rat brain FAAH-1; set-up: method as in PMID 23240907; conditions: rat brain FAAH-1, pH 7.4 ref 52; cited from earlier work
[5] = system: rat recombinant FAAH; set-up: method as in PMID 10571985; conditions: pH 9, oleamide hydrolysis ref 45; read-out: affinity (Km); cited from earlier work
[6] = system: FAAH-1 in rat brain; set-up: method as in ref 41 = [41]; 41. Garle MJ, Clark JS and Alexander SPH. A fluorescence-derivatisation assay for fatty acid amide hydrolase activity. 2005; pA2 Online. E-journal of the British Pharmacological Society.; conditions: oleamide hydrolysis, rat brain ref 41; cited from earlier work
[7] = system: FAAH-1 in rat liver preparations; conditions: cited from earlier work
[8] = system: FAAH; set-up: method as in ref 68 = [68]; 68. Dongdem JT Dawson SP Alexander SPH Characterization of [3-(3-carbamoylphenyl) phenyl] N-cyclohexyl carbamate, an inhibitor of FAAH: effect on rat liver FAAH and HEK293T-FAAH-2 deamination of oleam; conditions: cited from earlier work
[9] = rat liver oleamide hydrolase activity, NSAID 4.0 × 10^-6 to 1.024 × 10^-3 M in absolute ethanol, n = 4

SMILES: CC(=O)Nc1ccc(O)cc1 [Acetaminophen]
FAAH-1 oleamide hydrolase activity, % of control [1]: appeared to enhance enzyme activity

SMILES: CCCCC/C=C\C/C=C\C/C=C\C/C=C\CCCC(N)=O [Arachidonamide]
Vmax (nmol/min/mg protein) [2]: 8.4 ± 1.2 nmol/min/mg protein | FAAH-1 capacity (Vmax) higher compared with oleamide ([3]; rat liver FAAH-1): 12% | FAAH-1 capacity (Vmax) higher than that for stearoylamide ([3]; rat liver FAAH-1): 75% | Km [3]: 44.9 ± 7 µM | Vmax [3]: 10.1 ± 3.0 nmol/min/mg protein

SMILES: Cc1c(N(C)CS(=O)(=O)[O-])c(=O)n(-c2ccccc2)n1C.[Na+] [Dipyrone]
pIC50 (M) [1, 9]: 2.77 ± 0.07 M

SMILES: CC(C)Cc1ccc(C(C)C(=O)O)cc1 (stereo not drawn) [Ibuprofen]
pIC50 [4]: 3.1

SMILES: COc1ccc2c(c1)c(CC(=O)O)c(C)n2C(=O)c1ccc(Cl)cc1 [Indomethacin]
Mode of inhibition of FAAH activity [2]: non-competitive type inhibition | Vmax (nmol/min/mg protein) in presence of inhibitor ([2]; substrate arachidonamide, + 200 μM inhibitor): 7.2 ± 0.9 nmol/min/mg protein | Vmax (nmol/min/mg protein) in presence of inhibitor ([2]; substrate oleamide, + 200 μM inhibitor): 3.8 ± 0.4 nmol/min/mg protein | pIC50 [4]: 4.18

SMILES: Cc1ccc(Cl)c(Nc2ccccc2C(=O)O)c1Cl [Meclofenamic acid]
Mode of inhibition of FAAH activity [2]: non-competitive type inhibition | Vmax (nmol/min/mg protein) in presence of inhibitor ([2]; substrate arachidonamide, + 100 μM inhibitor): 6.7 ± 1.0 nmol/min/mg protein | Vmax (nmol/min/mg protein) in presence of inhibitor ([2]; substrate oleamide, + 100 μM inhibitor): 2.9 ± 0.1 nmol/min/mg protein | FAAH-1 oleamide hydrolase activity, % of control [1]: complete inhibition | IC50 [1, 9]: 269 µM

SMILES: CCCCCCCCCCCCCCCCCC(N)=O [Stearoylamide]
Vmax [3]: 2.5 ± 0.6 nmol/min/mg protein | Km ([3]; read-out: Km): 4.6 ± 0.8 µM

SMILES: CC1=C(CC(=O)O)c2cc(F)ccc2/C1=C\c1ccc(S(C)(=O)=O)cc1 [Sulindac sulphone]
IC50 [1, 9]: 447 µM

SMILES: CC1=C(CC(=O)O)c2cc(F)ccc2/C1=C\c1ccc([S+](C)[O-])cc1 (stereo not drawn) [Sulindac]
FAAH-1 oleamide hydrolase activity, % of control [1]: below 50 % of control | IC50 [1, 9]: 224 µM

SMILES: NC(=O)c1cccc(-c2cccc(OC(=O)NC3CCCCC3)c2)c1 [URB597]
Mode of FAAH inhibition [8]: uncompetitive

SMILES: Cc1onc(-c2ccccc2)c1-c1ccc(S(N)(=O)=O)cc1 [Valdecoxib]
IC50 [1, 9]: 1000 µM

SMILES: CC(=O)Oc1ccccc1C(=O)O [acetyl salicylic acid]
FAAH-1 oleamide hydrolase activity, % of control [1]: appeared to enhance enzyme activity

Further lines, with some results ahead:

FAAH-1 oleamide hydrolase activity, % of control [1]: below 50 % of control
SMILES: CC(C(=O)O)c1ccc2c(c1)[nH]c1ccc(Cl)cc12 (stereo not drawn) [Carprofen]
pIC50 [4]: 4.10

FAAH-1 oleamide hydrolase activity, % of control [1]: below 50 % of control | IC50 [1, 9]: 1260 µM
SMILES: O=C(O)Cc1ccccc1Nc1c(Cl)cccc1Cl [Diclofenac]

FAAH-1 oleamide hydrolase activity, % of control [1]: below 50 % of control | IC50 [1, 9]: 708 µM
SMILES: O=C(O)c1cc(-c2ccc(F)cc2F)ccc1O [Diflunisal]

FAAH-1 oleamide hydrolase activity, % of control [1]: below 50 % of control | IC50 [1, 9]: 1230 µM
SMILES: O=C(c1ccccc1)c1ccc2n1CCC2C(=O)O (stereo not drawn) [Ketorolac]

Vmax (nmol/min/mg protein) [2]: 4.6 ± 0.5 nmol/min/mg protein | Vmax [3]: 8.9 ± 1.1 nmol/min/mg protein | Km ([3]; read-out: Km): 177 ± 15.5 µM
SMILES: CCCCCCCC/C=C\CCCCCCCC(N)=O [Oleamide]
Km [5]: 37 ± 7 µM | Km [6]: 179 µM | Vmax ([7]; oleamide hydrolysis, rat liver preparations ref 41): 15 nmol.min^− 1.mg protein^− 1 | Km ([7]; oleamide hydrolysis, rat liver preparations ref 41, read-out: Km): 129 µM | Vmax ([7]; rat liver FAAH-catalysed oleamide hydrolysis ref 44): 5.7 nmol.min^− 1.mg protein^− 1 | Km ([7]; rat liver FAAH-catalysed oleamide hydrolysis ref 44, read-out: affinity (Km)): 104 µM

FAAH-1 activity (%) (basal oleamide hydrolysis, % of control) ([1]; 15% assay ethanol): 95 ± 1% | FAAH-1 activity (%) (basal oleamide hydrolysis, % of control) ([1]; 20% assay ethanol): 78 ± 1% | FAAH-1 activity (%) (basal oleamide hydrolysis, % of control) ([1]; 25% assay ethanol): 76 ± 4%
SMILES: CCO [ethanol]
